# In BindingDB's records for doi:10.1021/jm00024a005 (National Institute of Diabetes and Digestive and Kidney …, 1996):
# Where “and” joins values, the source holds several entries; their conditions need not be identical. Identical values can stand only once.
# Assay: Ability to inhibit [3H](+)-pentazocine binding to guinea pig brain Sigma receptor type 1
row,SMILES,Ki
1,CN1CCC2(c3cccc(O)c3)CC(=O)C(=Cc3ccc4ccccc4c3)C1C2 (stereo not given) [5-(3-Hydroxy-phenyl)-2-methyl-8-[1-naphthalen-2-yl-meth-(E)-ylidene]-2-aza-bicyclo[3.3.1]nonan-7-one],16.6 nM
2,CN1CCC2(c3cccc(O)c3)CC(=O)C(=Cc3cccc(I)c3)C1C2 (stereo not given) [5-(3-Hydroxy-phenyl)-8-[1-(3-iodo-phenyl)-meth-(E)-ylidene]-2-methyl-2-aza-bicyclo[3.3.1]nonan-7-one],1.62 nM
3,CN1CCC2(c3cccc(O)c3)CC(=O)C(=Cc3ccc(I)cc3)C1C2 (stereo not given) [5-(3-Hydroxy-phenyl)-8-[1-(4-iodo-phenyl)-meth-(E)-ylidene]-2-methyl-2-aza-bicyclo[3.3.1]nonan-7-one],1.71 nM
4,COc1ccc(C=C2C(=O)CC3(c4cccc(O)c4)CCN(C)C2C3)cc1 (stereo not given) [5-(3-Hydroxy-phenyl)-8-[1-(4-methoxy-phenyl)-meth-(E)-ylidene]-2-methyl-2-aza-bicyclo[3.3.1]nonan-7-one],1.9 nM and 7.8 nM
5,CN1CCC2(c3cccc(O)c3)CC(=O)C(=CC3CC3)C1C2 (stereo not given) [8-[1-Cyclopropyl-meth-(E)-ylidene]-5-(3-hydroxy-phenyl)-2-methyl-2-aza-bicyclo[3.3.1]nonan-7-one],62.3 nM
